Measured values published in patent publication US20110144303A1, “Biologically Active Peptidomimetic Macrocycles” (AILERON Therapeutics, Inc., priority 2008, published 2011).
Starred links: 1 amine or outer side, 2 acyl side, 3 side chain; linkers in the order of their positions; H or OH if unused. Positions of bridges follow the written chain, without caps; N, C: chain ends. Non-standard residues stand in square brackets, D forms with d. Residues, ends and D or L forms follow the SMILES beside them. Nle(6-ylidene) = O=C([C@H](CCCC=[*:3])N[*:1])[*:2]; Nle = CCCC[C@H](N)C(=O)O

Key:
[1] = Pepsin Stability: (E/S 1:50)
Source text: Table printed on a drawing sheet, Figure 12
Title: Pepsin Stability: (E/S 1:50)
The patent's description of the figure: FIG. 12 describes the comparative pepsin stability of SP-1 and SP-35 peptidomimetic macrocycles of the invention.
First reader's note: The title is printed over the plot below the table; the rate constants and half-lives describe degradation by pepsin, and the time points used are on the plot's Time (min) axis.

[2] = Pharmacokinetics of SP-1 and SP-35 in Rat following IV dose
Source text: Table printed on a drawing sheet, Figure 18
Title: Pharmacokinetics of SP-1 and SP-35 in Rat following IV dose
The patent's description of the figure: FIG. 18 illustrates the pharmacokinetic properties of SP-1 and SP-35 peptidomimetic macrocycles in rats.
First reader's note: The title stands over the plot above the table and applies to both: rat, IV dose.

GST-Bcl-XL = molecular target: T1, GST-Bcl-XL (Homo sapiens, UniProt Q07817); assay: Kd
T1 construct: GST
T1 sequence (Q07817 whole entry, looked up): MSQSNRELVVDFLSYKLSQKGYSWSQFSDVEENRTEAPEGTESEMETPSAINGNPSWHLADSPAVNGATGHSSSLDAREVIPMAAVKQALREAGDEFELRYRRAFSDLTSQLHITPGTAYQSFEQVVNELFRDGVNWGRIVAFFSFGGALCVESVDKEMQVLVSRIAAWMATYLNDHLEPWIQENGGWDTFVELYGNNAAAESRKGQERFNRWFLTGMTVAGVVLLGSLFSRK
Experimental: Table printed on a drawing sheet, Figure 7
The patent's description of the figure: FIG. 7 depicts binding properties to GST-Bcl-XL of SP-1 and SP-35 peptidomimetic macrocycles.
First copying reader's note: The table stands beside a saturation binding plot (2 µM receptor, 1x PBS + 5 mM CHAPS, 2.5% DMSO) whose legend names GST-Bcl-xL as the receptor for both peptides.
Where the first naming reader finds the target: description_of_the_figure: FIG. 7 depicts binding properties to GST-Bcl-XL of SP-1 and SP-35 peptidomimetic macrocycles.

GST-Bcl-2 = assay: Kd
Experimental: Table printed on a drawing sheet, Figure 8
The patent's description of the figure: FIG. 8 depicts binding properties to GST-Bcl-2 of SP-1 and SP-35 peptidomimetic macrocycles.
First copying reader's note: The Kd values belong to the plot beside the table, titled 'Saturation Binding Curves vs. 2 µM Receptor, 1x PBS + 5 mM CHAPS, 2.5% DMSO', whose legend names the receptor as GST-Bcl-2.
Where the first naming reader finds the target: description_of_the_figure: FIG. 8 depicts binding properties to GST-Bcl-2 of SP-1 and SP-35 peptidomimetic macrocycles.

Structure (SMILES): CCCC[C@H](NC(=O)[C@@H]1CCCC=CCCC[C@H](NC(=O)[C@H](C)NC(=O)[C@H](CC(C)C)NC(=O)[C@H](Cc2c[nH]cn2)NC(=O)[C@H](CCCNC(=N)N)NC(=O)[C@H](C)NC(=O)[C@@H](NC(=O)[C@H](CC(N)=O)NC(=O)[C@H](CCCNC(=N)N)NC(=O)[C@@H](NC(=O)[C@@H](NC(=O)[C@H](CC(=O)O)NC(C)=O)[C@@H](C)CC)[C@@H](C)CC)[C@@H](C)CC)C(=O)N[C@@H](C(C)C)C(=O)NCC(=O)N[C@@H](CC(=O)O)C(=O)N1)C(=O)N[C@@H](CC(=O)O)C(=O)N[C@@H](CCCNC(=N)N)C(=O)N[C@@H](CO)C(=O)N[C@H](C(N)=O)[C@@H](C)CC [SP-35, Ac-DIIRNIARHLA#VGD#NleDRSI-NH2] (Ac-DIIRNIARHLA[Nle(6-ylidene)]VGD[Nle(6-ylidene)][Nle]DRSI-NH2; staple 12-16)
- K1 min^-1 [1]: 0.15 min⁻¹
- K2 min^-1 [1]: 0.0430 min⁻¹
- half-life^1 [1]: 4.6 min
- half-life^2 [1]: 16 min
- AUC,inf [2]: 15400 ng·h/mL
- Cl [2]: 3.25 mL/min/kg
- Vss [2]: 0.132 L/kg
- Vz [2]: 2.025 L/kg
- Cmax ([2]; rat, in vivo, iv): 32200 ng/mL
- MRT ([2]; rat, in vivo, iv): 40.8 min
- half-life ([2]; rat, in vivo, iv): 126 min
- Kd (GST-Bcl-XL): > 10 µM
- Kd (GST-Bcl-2): > 10 µM
